From US20190322676A1, “CERAMIDE GALACTOSYLTRANSFERASE INHIBITORS FOR THE TREATMENT OF DISEASE” (BioMarin Pharmaceutical Inc., priority 2016, published 2019) come the findings set out here.

This test has as its target T1, human CGT (ceramide galactosyltransferase), CHO/CGT lysate (Homo sapiens, UniProt Q16880).
T1 construct: Full-length human CGT cDNA was cloned into the BamH1/Xho1 site of pcDNA3.1 (+); expressed in transfected cells; host or cells: Chinese hamster ovary (CHO) cells; lysate prepared with M-PER
T1 sequence (Q16880 21-541): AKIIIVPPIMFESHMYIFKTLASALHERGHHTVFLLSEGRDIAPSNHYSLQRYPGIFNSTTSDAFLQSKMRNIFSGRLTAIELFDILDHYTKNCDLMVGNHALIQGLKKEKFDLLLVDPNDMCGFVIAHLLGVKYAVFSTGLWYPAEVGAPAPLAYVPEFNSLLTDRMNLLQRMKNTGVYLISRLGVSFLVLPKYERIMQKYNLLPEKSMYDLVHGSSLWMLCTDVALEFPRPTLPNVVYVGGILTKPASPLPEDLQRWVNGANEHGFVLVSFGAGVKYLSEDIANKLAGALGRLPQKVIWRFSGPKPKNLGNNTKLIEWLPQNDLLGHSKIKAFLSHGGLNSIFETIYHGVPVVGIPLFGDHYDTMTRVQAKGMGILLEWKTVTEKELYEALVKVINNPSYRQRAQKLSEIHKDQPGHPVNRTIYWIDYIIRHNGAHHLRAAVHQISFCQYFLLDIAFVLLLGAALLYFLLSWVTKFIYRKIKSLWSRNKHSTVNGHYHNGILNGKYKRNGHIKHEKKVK
Description: CGT enzyme assay, RapidFire/MS/MS readout (Table 1 ranges with one asterisk *). The conditions noted are these: RapidFire method (range with one asterisk *). The class given is biochemical. In outline: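 Lysate (4 μg) of CHO cells transfected with full-length human CGT incubated 1 h at 37 °C with compound (0.001–50 μM) in pH 7.2 HEPES buffer with 10 μM C6-NBD-dihydro-ceramide, 17.5 μM UDP-galactose, Mg2+/Mn2+, CHAPS, BSA, 0.5% DMSO; ** set also contained 0.01% Tween 80. Product quantified by RapidFire/MS/MS, normalized to internal standard; IC50 from sigmoidal variable-slope fits.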

Where only a bound is given, the exact number is not on record here.

As for `NC1CCN(C(=O)[C@@H](NS(=O)(=O)c2ccc3c(cnn3CC3CCCC3)c2)C(F)(F)c2ccc(Cl)cc2)CC1` [Compound 99-1, (R)—N-(3-(4-aminopiperidin-1-yl)-1-(4-chlorophenyl)-1,1-difluoro-3-oxopropan-2-yl)-1-(cyclopentylmethyl)-1H-indazole-5-sulfonamide], the IC50 was in the range of 1 to 10 µM.
Molecule `NC1CCN(C(=O)[C@H](NS(=O)(=O)c2ccc3c(cnn3CC3CCCC3)c2)C(F)(F)c2ccc(Cl)cc2)CC1` [Compound 99-2, (S)—N-(3-(4-aminopiperidin-1-yl)-1-(4-chlorophenyl)-1,1-difluoro-3-oxopropan-2-yl)-1-(cyclopentylmethyl)-1H-indazole-5-sulfonamide] displayed an IC50 of 30 to 100 µM.
Molecule `CN([C@H](C(=O)N1CCC(N)CC1)C(F)(F)c1ccc(Cl)cc1)S(=O)(=O)c1ccc2cc(OC3CCCC3)ccc2c1` [Compound 100-1, (R)—N-(3-(4-aminopiperidin-1-yl)-1-(4-chlorophenyl)-1,1-difluoro-3-oxopropan-2-yl)-6-(cyclopentyloxy)-N-methylnaphthalene-2-sulfonamide] showed an IC50 of under 1 µM.
Then `CN([C@@H](C(=O)N1CCC(N)CC1)C(F)(F)c1ccc(Cl)cc1)S(=O)(=O)c1ccc2cc(OC3CCCC3)ccc2c1` [Compound 100-2, (S)—N-(3-(4-aminopiperidin-1-yl)-1-(4-chlorophenyl)-1,1-difluoro-3-oxopropan-2-yl)-6-(cyclopentyloxy)-N-methylnaphthalene-2-sulfonamide], with 10 to 30 µM; and `NC1CC2CCC(C1)N2C(=O)[C@@H](NS(=O)(=O)c1ccc2cc(OC3CCCC3)ccc2c1)C(F)(F)c1ccc(-c2ccc(Cl)s2)cc1` (stereo partly drawn) [Compound 101-1, N-((2R)-3-(3-amino-8-azabicyclo[3.2.1]octan-8-yl)-1-(4-(5-chlorothiophen-2-yl)phenyl)-1,1-difluoro-3-oxopropan-2-yl)-6-(cyclopentyloxy)naphthalene-2-sulfonamide], with under 1 µM.
With `NC1CC2CCC(C1)N2C(=O)[C@H](NS(=O)(=O)c1ccc2cc(OC3CCCC3)ccc2c1)C(F)(F)c1ccc(-c2ccc(Cl)s2)cc1` (stereo partly drawn) [Compound 101-2, N-((2S)-3-(3-amino-8-azabicyclo[3.2.1]octan-8-yl)-1-(4-(5-chlorothiophen-2-yl)phenyl)-1,1-difluoro-3-oxopropan-2-yl)-6-(cyclopentyloxy)naphthalene-2-sulfonamide] the figure was 1 to 10 µM; with `NC1CC2CCC(C1)N2C(=O)[C@@H](NS(=O)(=O)c1ccc2cc(OC3CCCC3)ccc2c1)C(F)(F)c1ccc(OC2CCCCC2)cc1` (stereo partly drawn) [Compound 102-1, N-((2R)-3-(3-amino-8-azabicyclo[3.2.1]octan-8-yl)-1-(4-(cyclohexyloxy)phenyl)-1,1-difluoro-3-oxopropan-2-yl)-6-(cyclopentyloxy) naphthalene-2-sulfonamide], under 1 µM.
With `NC1CC2CCC(C1)N2C(=O)[C@H](NS(=O)(=O)c1ccc2cc(OC3CCCC3)ccc2c1)C(F)(F)c1ccc(OC2CCCCC2)cc1` (stereo partly drawn) [Compound 102-2, N-((2S)-3-(3-amino-8-azabicyclo[3.2.1]octan-8-yl)-1-(4-(cyclohexyloxy)phenyl)-1,1-difluoro-3-oxopropan-2-yl)-6-(cyclopentyloxy)naphthalene-2-sulfonamide] the figure was 1 to 10 µM; with `NC1CCN(C(=O)[C@@H](NS(=O)(=O)c2ccc(OCC3CCCCC3)cc2)C(F)(F)c2ccc(OC3CCCCC3)cc2)CC1` [Compound 103-1, (R)—N-(3-(4-aminopiperidin-1-yl)-1-(4-(cyclohexyloxy)phenyl)-1,1-difluoro-3-oxopropan-2-yl)-4-(cyclohexylmethoxy)benzenesulfonamide], under 1 µM; with `NC1CCN(C(=O)[C@H](NS(=O)(=O)c2ccc(OCC3CCCCC3)cc2)C(F)(F)c2ccc(OC3CCCCC3)cc2)CC1` [Compound 103-2, (S)—N-(3-(4-aminopiperidin-1-yl)-1-(4-(cyclohexyloxy)phenyl)-1,1-difluoro-3-oxopropan-2-yl)-4-(cyclohexylmethoxy)benzenesulfonamide], 30 to 100 µM.
